This passage reports Activity results from ChEMBL document CHEMBL5715954, “Silencing c-Myc translation as a therapeutic strategy through targeting PI3Kδ and CK1ε in hematological malignancies” (Blood, 2017).

SMILES strings stand for the structures.

What all share (set-up): scale not given: the % may be the effect or the level left
Test [1] has as its target T1, Tyrosine-protein kinase Tec (Homo sapiens) (UniProt P42680).
T1 sequence (whole entry): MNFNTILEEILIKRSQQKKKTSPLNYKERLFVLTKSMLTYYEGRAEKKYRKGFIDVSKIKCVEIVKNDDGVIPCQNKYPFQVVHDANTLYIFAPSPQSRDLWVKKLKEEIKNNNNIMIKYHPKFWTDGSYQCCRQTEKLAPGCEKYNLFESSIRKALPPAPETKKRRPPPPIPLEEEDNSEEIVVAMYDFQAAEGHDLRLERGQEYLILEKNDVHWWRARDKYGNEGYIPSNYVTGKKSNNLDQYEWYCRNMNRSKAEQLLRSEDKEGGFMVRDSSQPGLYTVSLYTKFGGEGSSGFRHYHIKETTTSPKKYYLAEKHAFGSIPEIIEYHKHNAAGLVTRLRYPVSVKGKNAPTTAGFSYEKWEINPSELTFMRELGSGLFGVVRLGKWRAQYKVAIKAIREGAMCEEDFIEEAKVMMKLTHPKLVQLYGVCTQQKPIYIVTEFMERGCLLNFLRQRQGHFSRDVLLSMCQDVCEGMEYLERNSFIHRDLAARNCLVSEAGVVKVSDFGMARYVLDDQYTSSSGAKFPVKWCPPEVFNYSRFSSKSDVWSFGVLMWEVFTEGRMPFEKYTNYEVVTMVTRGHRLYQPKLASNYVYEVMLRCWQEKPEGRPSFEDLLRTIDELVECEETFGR
In words: Inhibition of human TEC assessed as enzyme activity at 1 uM using poly[Glu:Tyr] (4:1) as substrate preincubated for 20 mins followed by [gamma-33P]-ATP addition and measured after 120 mins by radiometric Hot-SpotSM Kinase assay relative to control.

The target of test [2] is Serine/threonine-protein kinase WNK3 (Homo sapiens) (UniProt Q9BYP7). The experiment in a line: Inhibition of human WNK3 assessed as enzyme activity at 1 uM using myelin basic protein as substrate preincubated for 20 mins followed by [gamma-33P]-ATP addition and measured after 120 mins by radiometric Hot-SpotSM Kinase assay relative to control.
Test [3] addresses T2, Beta-adrenergic receptor kinase 1 (Homo sapiens) (UniProt P25098).
T2 sequence (whole entry): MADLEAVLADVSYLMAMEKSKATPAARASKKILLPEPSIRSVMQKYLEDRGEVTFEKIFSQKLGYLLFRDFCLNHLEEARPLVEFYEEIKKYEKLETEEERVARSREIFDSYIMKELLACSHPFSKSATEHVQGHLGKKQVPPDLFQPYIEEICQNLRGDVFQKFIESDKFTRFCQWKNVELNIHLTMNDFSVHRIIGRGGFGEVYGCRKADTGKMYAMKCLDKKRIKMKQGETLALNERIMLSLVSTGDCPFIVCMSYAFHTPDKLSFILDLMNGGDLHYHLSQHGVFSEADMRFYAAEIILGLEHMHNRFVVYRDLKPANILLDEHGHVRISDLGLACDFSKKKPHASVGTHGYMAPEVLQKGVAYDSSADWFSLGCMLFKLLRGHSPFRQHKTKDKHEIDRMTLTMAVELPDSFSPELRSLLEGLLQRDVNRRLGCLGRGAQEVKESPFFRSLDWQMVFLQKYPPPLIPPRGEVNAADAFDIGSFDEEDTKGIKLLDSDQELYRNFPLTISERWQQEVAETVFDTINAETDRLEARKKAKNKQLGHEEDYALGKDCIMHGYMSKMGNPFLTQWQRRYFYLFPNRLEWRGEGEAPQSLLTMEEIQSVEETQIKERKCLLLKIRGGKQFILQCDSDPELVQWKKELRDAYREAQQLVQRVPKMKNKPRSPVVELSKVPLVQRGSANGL
In words: Inhibition of human GRK2 assessed as enzyme activity at 1 uM using casein as substrate preincubated for 20 mins followed by [gamma-33P]-ATP addition and measured after 120 mins by radiometric Hot-SpotSM Kinase assay relative to control.

Test [4] addresses RAC-gamma serine/threonine-protein kinase (Homo sapiens) (UniProt Q9Y243). In words: Inhibition of human AKT3 assessed as enzyme activity at 1 uM using KGSGSGRPRTSSFAEG as substrate preincubated for 20 mins followed by [gamma-33P]-ATP addition and measured after 120 mins by radiometric Hot-SpotSM Kinase assay relative to control.
Test [5] concerns the target Tau-tubulin kinase 1 (Homo sapiens) (UniProt Q5TCY1). The experiment in a line: Inhibition of human TTBK1 assessed as enzyme activity at 1 uM using myelin basic protein as substrate preincubated for 20 mins followed by [gamma-33P]-ATP addition and measured after 120 mins by radiometric Hot-SpotSM Kinase assay relative to control.
In test [6] the target is Serine/threonine-protein kinase PAK 5 (Homo sapiens) (UniProt Q9P286). The experiment in a line: Inhibition of human PAK5 assessed as enzyme activity at 1 uM using RRRLSFAEPG as substrate preincubated for 20 mins followed by [gamma-33P]-ATP addition and measured after 120 mins by radiometric Hot-SpotSM Kinase assay relative to control.
The target of test [7] is Serine/threonine-protein kinase PLK3 (Homo sapiens) (UniProt Q9H4B4). The experiment in a line: Inhibition of human PLK3 assessed as enzyme activity at 1 uM using casein as substrate preincubated for 20 mins followed by [gamma-33P]-ATP addition and measured after 120 mins by radiometric Hot-SpotSM Kinase assay relative to control.
Test [8] addresses Serine/threonine-protein kinase 10 (Homo sapiens) (UniProt O94804). The experiment in a line: Inhibition of human LOK/STK10 assessed as enzyme activity at 1 uM using RLGRDKYKTLRQIRQ as substrate preincubated for 20 mins followed by [gamma-33P]-ATP addition and measured after 120 mins by radiometric Hot-SpotSM Kinase assay relative to control.
Test [9] has as its target Vascular endothelial growth factor receptor 2 (Homo sapiens) (UniProt P35968). In words: Inhibition of human KDR assessed as enzyme activity at 1 uM using poly[Glu:Tyr] (4:1) as substrate preincubated for 20 mins followed by [gamma-33P]-ATP addition and measured after 120 mins by radiometric Hot-SpotSM Kinase assay relative to control.
The target in test [10] is Insulin-like growth factor 1 receptor (Homo sapiens) (UniProt P08069). In words: Inhibition of human IGF1R assessed as enzyme activity at 1 uM using KKKSPGEYVNIEFG as substrate preincubated for 20 mins followed by [gamma-33P]-ATP addition and measured after 120 mins by radiometric Hot-SpotSM Kinase assay relative to control.

Sequence of Serine/threonine-protein kinase PAK 5 (Homo sapiens) (Q9P286 whole entry, looked up): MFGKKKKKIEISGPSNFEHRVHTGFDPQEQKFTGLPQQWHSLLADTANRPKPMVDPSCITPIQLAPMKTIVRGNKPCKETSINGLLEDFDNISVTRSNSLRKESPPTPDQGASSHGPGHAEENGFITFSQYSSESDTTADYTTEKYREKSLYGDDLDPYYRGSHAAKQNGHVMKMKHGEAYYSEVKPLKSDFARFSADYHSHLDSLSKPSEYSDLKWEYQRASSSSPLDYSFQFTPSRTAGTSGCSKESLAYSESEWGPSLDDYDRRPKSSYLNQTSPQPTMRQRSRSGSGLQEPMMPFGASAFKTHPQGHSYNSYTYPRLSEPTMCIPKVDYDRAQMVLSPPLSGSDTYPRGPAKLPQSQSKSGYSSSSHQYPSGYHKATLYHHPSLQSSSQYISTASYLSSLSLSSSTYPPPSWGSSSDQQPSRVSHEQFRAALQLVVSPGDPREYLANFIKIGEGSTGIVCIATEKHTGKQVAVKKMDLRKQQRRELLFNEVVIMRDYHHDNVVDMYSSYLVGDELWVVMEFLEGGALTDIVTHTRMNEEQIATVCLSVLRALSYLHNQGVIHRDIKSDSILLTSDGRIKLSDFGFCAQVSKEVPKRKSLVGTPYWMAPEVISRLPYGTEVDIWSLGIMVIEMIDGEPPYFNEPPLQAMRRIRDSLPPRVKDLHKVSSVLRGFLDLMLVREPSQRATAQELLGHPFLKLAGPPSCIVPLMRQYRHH
Sequence of RAC-gamma serine/threonine-protein kinase (Homo sapiens) (Q9Y243 whole entry): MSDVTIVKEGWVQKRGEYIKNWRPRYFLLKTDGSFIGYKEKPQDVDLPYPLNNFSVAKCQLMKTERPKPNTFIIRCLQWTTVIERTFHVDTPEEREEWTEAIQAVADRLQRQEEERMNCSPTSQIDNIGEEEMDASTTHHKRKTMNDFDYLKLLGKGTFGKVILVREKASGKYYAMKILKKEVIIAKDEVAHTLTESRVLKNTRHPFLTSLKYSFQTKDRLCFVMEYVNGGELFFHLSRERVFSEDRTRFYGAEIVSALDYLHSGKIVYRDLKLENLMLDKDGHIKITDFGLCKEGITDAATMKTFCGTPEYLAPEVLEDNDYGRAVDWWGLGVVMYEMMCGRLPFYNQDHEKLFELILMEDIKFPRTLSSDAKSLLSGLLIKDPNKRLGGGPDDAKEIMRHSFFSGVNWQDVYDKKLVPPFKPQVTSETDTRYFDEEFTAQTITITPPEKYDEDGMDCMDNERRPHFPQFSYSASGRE
Sequence of Tau-tubulin kinase 1 (Homo sapiens) (Q5TCY1 whole entry): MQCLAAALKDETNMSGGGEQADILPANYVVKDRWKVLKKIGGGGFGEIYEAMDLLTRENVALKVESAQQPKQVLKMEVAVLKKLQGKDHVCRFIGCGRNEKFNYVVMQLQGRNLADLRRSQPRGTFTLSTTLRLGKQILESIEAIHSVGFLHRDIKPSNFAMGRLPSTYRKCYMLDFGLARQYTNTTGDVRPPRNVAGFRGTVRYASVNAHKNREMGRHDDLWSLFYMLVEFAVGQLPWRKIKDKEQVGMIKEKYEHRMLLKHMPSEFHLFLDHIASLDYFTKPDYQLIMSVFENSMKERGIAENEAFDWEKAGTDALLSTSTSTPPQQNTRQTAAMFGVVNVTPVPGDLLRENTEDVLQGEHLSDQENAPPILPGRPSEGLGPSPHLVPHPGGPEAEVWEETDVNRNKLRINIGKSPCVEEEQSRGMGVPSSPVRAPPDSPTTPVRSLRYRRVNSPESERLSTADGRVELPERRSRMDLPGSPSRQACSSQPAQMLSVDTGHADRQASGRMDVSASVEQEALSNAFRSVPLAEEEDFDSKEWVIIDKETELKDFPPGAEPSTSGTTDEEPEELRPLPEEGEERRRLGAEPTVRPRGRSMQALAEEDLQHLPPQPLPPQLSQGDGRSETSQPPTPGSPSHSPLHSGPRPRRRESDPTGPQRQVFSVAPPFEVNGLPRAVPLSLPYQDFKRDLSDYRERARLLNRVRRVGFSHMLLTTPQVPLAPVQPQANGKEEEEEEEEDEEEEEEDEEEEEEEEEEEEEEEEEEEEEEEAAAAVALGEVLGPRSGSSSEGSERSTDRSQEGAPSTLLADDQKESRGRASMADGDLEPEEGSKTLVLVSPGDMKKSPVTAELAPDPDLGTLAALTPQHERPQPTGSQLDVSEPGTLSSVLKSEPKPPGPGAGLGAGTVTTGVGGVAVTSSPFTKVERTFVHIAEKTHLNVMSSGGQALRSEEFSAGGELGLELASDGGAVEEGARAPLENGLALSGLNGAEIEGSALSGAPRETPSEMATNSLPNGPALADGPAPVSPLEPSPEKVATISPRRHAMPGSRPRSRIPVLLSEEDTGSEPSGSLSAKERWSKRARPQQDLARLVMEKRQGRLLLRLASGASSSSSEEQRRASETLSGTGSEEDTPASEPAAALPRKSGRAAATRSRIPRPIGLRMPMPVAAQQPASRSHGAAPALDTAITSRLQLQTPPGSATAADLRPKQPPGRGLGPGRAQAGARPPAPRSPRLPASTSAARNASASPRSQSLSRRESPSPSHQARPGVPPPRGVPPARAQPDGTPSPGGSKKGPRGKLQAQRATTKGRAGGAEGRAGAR
Sequence of Vascular endothelial growth factor receptor 2 (Homo sapiens) (P35968 whole entry): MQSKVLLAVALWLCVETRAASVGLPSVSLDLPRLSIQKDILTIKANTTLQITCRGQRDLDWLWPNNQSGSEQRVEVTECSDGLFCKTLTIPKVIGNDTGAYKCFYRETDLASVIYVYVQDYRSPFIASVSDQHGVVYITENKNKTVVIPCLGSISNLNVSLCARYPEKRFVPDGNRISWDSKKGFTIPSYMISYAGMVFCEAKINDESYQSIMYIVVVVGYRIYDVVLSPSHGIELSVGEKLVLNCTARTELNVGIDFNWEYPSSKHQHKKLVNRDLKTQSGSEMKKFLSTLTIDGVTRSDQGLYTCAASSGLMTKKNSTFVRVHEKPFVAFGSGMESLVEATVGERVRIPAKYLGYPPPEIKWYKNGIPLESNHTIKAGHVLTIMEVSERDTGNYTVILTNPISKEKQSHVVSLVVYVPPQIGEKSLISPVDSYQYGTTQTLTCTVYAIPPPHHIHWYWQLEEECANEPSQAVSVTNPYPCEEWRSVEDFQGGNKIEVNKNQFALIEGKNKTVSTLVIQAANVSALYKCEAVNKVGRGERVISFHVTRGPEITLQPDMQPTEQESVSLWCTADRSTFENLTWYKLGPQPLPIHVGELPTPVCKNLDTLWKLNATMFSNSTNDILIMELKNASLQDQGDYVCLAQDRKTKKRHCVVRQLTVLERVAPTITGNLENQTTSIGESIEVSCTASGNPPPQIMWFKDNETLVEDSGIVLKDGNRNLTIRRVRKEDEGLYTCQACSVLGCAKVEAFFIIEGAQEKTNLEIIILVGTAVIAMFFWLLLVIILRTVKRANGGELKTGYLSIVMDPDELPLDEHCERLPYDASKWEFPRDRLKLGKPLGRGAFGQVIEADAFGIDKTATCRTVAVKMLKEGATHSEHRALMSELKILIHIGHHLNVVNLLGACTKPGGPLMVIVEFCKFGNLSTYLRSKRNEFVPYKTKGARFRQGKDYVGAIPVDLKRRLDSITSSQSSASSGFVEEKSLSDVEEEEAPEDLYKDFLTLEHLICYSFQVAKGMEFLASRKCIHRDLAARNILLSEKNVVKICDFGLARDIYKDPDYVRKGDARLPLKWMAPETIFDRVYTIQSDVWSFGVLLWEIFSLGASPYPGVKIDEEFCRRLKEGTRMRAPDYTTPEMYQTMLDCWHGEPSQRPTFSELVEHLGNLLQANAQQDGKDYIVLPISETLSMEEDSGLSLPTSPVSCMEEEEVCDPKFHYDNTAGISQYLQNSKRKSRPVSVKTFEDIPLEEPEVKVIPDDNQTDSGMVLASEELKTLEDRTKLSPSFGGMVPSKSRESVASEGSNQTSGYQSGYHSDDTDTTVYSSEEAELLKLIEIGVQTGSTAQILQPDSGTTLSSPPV
Sequence of Serine/threonine-protein kinase 10 (Homo sapiens) (O94804 whole entry, looked up): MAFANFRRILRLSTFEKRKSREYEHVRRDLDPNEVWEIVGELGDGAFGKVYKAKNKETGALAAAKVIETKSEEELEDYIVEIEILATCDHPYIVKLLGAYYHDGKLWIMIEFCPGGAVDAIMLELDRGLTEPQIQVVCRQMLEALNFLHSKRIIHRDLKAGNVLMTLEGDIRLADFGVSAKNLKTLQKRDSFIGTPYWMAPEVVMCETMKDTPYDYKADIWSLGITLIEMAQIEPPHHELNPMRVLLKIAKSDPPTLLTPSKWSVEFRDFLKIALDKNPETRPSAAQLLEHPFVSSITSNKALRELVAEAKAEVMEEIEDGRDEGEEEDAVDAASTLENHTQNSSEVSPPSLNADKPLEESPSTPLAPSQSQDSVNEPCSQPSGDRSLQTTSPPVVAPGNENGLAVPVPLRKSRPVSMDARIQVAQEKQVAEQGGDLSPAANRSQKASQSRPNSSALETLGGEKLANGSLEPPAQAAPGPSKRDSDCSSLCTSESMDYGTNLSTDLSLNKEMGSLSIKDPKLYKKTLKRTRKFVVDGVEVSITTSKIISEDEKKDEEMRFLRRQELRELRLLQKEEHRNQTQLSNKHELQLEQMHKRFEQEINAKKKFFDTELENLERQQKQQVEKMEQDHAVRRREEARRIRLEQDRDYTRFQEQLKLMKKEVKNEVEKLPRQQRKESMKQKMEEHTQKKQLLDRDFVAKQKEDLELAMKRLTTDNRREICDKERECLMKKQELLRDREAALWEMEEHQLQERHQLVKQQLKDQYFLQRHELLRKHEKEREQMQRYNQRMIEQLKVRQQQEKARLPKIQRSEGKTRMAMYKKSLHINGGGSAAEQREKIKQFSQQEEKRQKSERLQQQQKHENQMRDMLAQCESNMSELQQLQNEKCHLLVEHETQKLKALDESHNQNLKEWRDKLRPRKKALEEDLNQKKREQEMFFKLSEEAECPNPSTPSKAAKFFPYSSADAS

On to `C[C@H](Nc1ncnc2nc[nH]c12)c1cc2cccc(Cl)c2c(=O)n1-c1ccccc1`, for which the Activity in test [1] amounted to 95.8%; in test [2], 86.8%; in test [3] it was 94.2%; in test [4], 99.8%; in test [5], 97.8%; in [6] it was 101%. Moreover, the Activity in [7] was determined as 95.1%; in test [8], 94.4%; in [9], 95.9%; in test [10], 102%.

Regarding `CC[C@H](Nc1ncnc2[nH]cnc12)c1nc2cccc(F)c2c(=O)n1-c1ccccc1`, the Activity in [1] amounted to 99.3%; in test [2], 86.4%; in test [3], 93.9%; in test [4], 102%; in test [5], 95.8%; in test [6], 101%. In addition, the Activity in [7] is 98.4%; in [8], 94.4%; in test [9] it was 97.7%; in [10], 91.5%.

In the case of `CC(C)Oc1ccc(-c2nn([C@@H](C)c3oc4ccc(F)cc4c(=O)c3-c3cccc(F)c3)c3ncnc(N)c23)cc1F` [UMBRALISIB], the Activity in test [1] worked out at 98.1%; in [2] it was 82.7%; in test [3] it was 94.5%; in [4] it was 100%; in test [5], 103%; in test [6], 96.4%. Moreover, the Activity in test [7] was determined as 96.7%; in test [8], 99%; in test [9], 101%; in test [10] it was 96.5%.
